Measurements: patent US5827887A, “Biphenyl compounds” (Roussel Uclaf, priority 1995, dated 1998)

Each compound was assayed against T1, human prostate 5-α-reductase (PH6) (Homo sapiens, UniProt P31213) (assay: 5-α-reductase activity in vitro, HPLC of 5-α reduced metabolites of tritiated testosterone, homogenates of human prostates (PH6)). Details: human prostate homogenate; testosterone substrate; pH 5.5; 37° C., 30 minutes; read-out: IC50 of inhibition of the 5-α-reductase activity of the human prostate enzyme (PH6).
T1 construct: Homogenates of human prostates were used, obtained by radical prostatectomies; from tissue; host or cells: human prostate (benign hyperplasia, radical prostatectomy), homogenate, 140,000 g pellet
T1 sequence (P31213 1-254): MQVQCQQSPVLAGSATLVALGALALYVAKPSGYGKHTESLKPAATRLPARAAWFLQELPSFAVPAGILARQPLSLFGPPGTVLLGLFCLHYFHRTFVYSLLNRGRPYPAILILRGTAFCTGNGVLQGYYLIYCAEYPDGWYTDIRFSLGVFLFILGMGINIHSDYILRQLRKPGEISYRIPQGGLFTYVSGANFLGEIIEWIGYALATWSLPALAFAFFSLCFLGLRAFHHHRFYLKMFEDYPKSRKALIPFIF
Type: biochemical
Procedure: The test for measuring the 5-α-reductase activity took place in vitro by incubating the enzyme and its substrate (testosterone) and measuring by HPLC chromatography the quantity of 5-α reduced metabolites formed (dihydro-testosterone (DHT) and 5-α-androstane-diol). Homogenates of human prostates were used, obtained by radical prostatectomies due to benign hyperplasia of the prostate (BHP): PH6.
The prostate was collected as soon as it left the operating theater suite and was packed in aluminum foil placed in a container filled with dry ice. In the laboratory, if the homogenate was not prepared immediately, the prostate could be kept at -80° C. The prostate was shredded over ice into very small pieces, which were homogenized in a medium A (20 mM of potassium phosphate, pH 6.5; 0.32M of sucrose; 1 mM of dithiotreitol (DTT); 50 uM NADPH), in a polytron, then in a Potter glass flask. After centrifuging at 140,000 g for 60 minutes at 4° C., the pellets obtained were suspended in 10 to 20 ml of medium B ([…] of potassium phosphate, pH 6.5; 20% of glycerol; 1 mM of dithiothreitol). The medium was distributed in Nunc tubes kept at -80° C. Determination of the proteins was carried out on a small amount of homogenate for its future use in the test and it was therefore assured of having at least 10 mg of proteins/ml of homogenate.
Incubation was carried out at a pH of 5.5 at the rate of 1 ml of medium/tube in the presence of citrate (normal medium and pH of the prostate).
1) Preparation of the substrate (S) which was the mixture of "unlabelled" testosterone and "tritiated" testosterone with an isotopic dilution of 100 in a trisodium citrate buffer pH 5.0
a) 40 mM of trisodium citrate buffer: 11.76 g of 3 Na-citrate, 2H2 O (Merk ref. Art 6448) were weighed and dissolved in 1 liter of distilled water (Milli-Q) and the solution was adjusted to pH of 5.0.
b) mixture of "unlabelled" testosterone and "tritiated testosterone with an isotopic dilution of 100: To obtain a solution of testosterone of 1 mM, 2.88 mg of "unlabelled" testosterone were weighed and dissolved in 10 ml of ethanol. This solution was diluted to 0.99/1000, that is 9.9 μl in 10 ml of citrate buffer (=10^-6 M solution). 9 μl of ^3 H-testosterone (NET-370) were added to 10 ml of the preceding solution (=isotopic dilution of 100). The substrate (S) was ready.
2) Preparation of enzyme+DTT+NADPH mixture
a) Potassium phosphate buffer, 40 mM, pH 6.5:
5.44 g de KH2 PO4 (Riedel de Haen ref. 30407) was weighed and dissolved in 1 liter of distilled water (Milli-Q) and the solution was adjusted to a pH of 6.5.
3.1 mg of DTT were weighed and dissolved in 1 ml of phosphate buffer.
8.33 mg of NADPH were weighed and dissolved in 1 ml of phosphate buffer.
d) enzyme+DTT+NADPH mixture (E):
For one test, 0.5 mg of proteins of prostate homogenate, 50 μl of DTT and 50 μl of NADPH were mixed together at 4° C. and the mixture was made up to 500 μl with the phosphate buffer.
3) Incubation (5α-reduction)
One tube was prepared for each test and 500 μl of (S) and 10 μl of inhibitor at the desired concentration (or ethanol for the controls) are put in each tube. The tubes containing mixture (S) and the flask containing mixture (E) were pre-incubated in a water bath for 3 to 5 minutes.
To start the reaction, 500 μl of E were transferred rapidly into each tube containing S+the inhibitor and the mixture was incubated at 37° C. with gentle stirring for 30 minutes. […]
`CC(C)N(C(=O)COc1c(F)cc(-c2ccc(C(=O)O)cc2)cc1[N+](=O)[O-])C(C)C` [Example 4, 4'-[2-[bis-(isopropyl)-amino]-2-oxoethoxy]-3'-fluoro-5'-nitro-(1,1'-biphenyl)-4-carboxylic acid] showed an IC50 of 9.6 nM. `CCc1cc(-c2ccc(C(=O)O)cc2)ccc1OCC(=O)N(C(C)C)C(C)C` [Example 12, 4'-[2-[bis-(isopropyl)-amino)-2-oxoethoxy]-3'-ethyl-(1,1'-biphenyl)-4-carboxylic acid] showed an IC50 of 2000 nM. `O=C(COc1c(F)cc(-c2ccc(C(=O)O)cc2)cc1[N+](=O)[O-])NC(c1ccccc1)(c1ccccc1)c1ccccc1` [Example 6, 3'-fluoro-5'-nitro-4'-[2-oxo-2-[(tribenzyl)-amino]-ethoxy]-(1,1'-biphenyl)-4-carboxylic acid] gave an IC50 of 36 nM. `CCc1cc(OCC(=O)N(C(C)C)C(C)C)ccc1-c1ccc(C(=O)O)cc1` [Example 11, 4'-(2-[bis-(isopropyl)-amino)-2-oxoethoxy]-2'-ethyl-(1,1'-biphenyl)-4-carboxylic acid] was tested, and the IC50 was 77 nM. With `O=C(COc1ccc(-c2ccc(C(=O)O)cc2)cc1)NC(c1ccccc1)(c1ccccc1)c1ccccc1` [Example 5, 4'-[2-oxo-2-([tribenzyl)-amino]-ethoxy]-(1,1'-biphenyl) -4-carboxylic acid] the IC50 was 92 nM.
